{
  "source": "patent US12681015B2",
  "about": "“Methods for predicting patient response to DMARDs” (Queen Mary University of London, priority 2019, dated 2026)",
  "key": {"[1]": {"system": "inflammatory arthritis in Alox15-/- mice", "test": "K/BxN serum inflammatory arthritis in Alox15-/- mice treated with MTX", "format": "in vivo", "protocol": "(§1) Inflammatory arthritis was initiated in wild type (WT) and Alox15^−/− deficient mice by the administration of arthritogenic serum on days 0 and 2. […] Disease severity was assessed by measuring (A) disease activity using a 26-point clinical score (B) body weight and (C) paw edema. (D) Eight days post disease initiation joints were collected, leukocytes were liberated and the number of infiltrated leukocytes was determined using flow cytometry and fluorescently labelled antibodies. Results for A-C are mean±SEM and for D are percentage of vehicle n=7 mice per group. Results for D are representative of n=8 mice per group. Experiments were conducted on two distinct occasions. * p<0.05 vs Vehicle group for A-C using two-way ANOVA, for D using one-sample t test.\n(§2) Inflammatory arthritis was initiated in wild type (WT) and Alox15^−/− mice by injecting K/BxN serum via intraperitoneal injection on days 0 and 2. […] Blood and joints were collected on day 8 and the concentrations of inflammatory eicosanoids in (A) plasma and (B) joints were determined using LC-MS/MS profiling.\n(§3) Plasma was obtained from peripheral blood of healthy volunteers, patients and mouse following centrifugation at 1500×g for 10 min at room temperature. Paws were collected and immediately transferred to liquid nitrogen prior to homogenization in 1 ml ice cold MeOH and homogenized using a glass dounce. All samples for LC-MS/MS-based profiling were extracted using solid-phase extraction columns as in Walker, M. E., Souza, P. R., Colas, R. A. & Dalli, J. “13-Series resolvins mediate the leukocyte-platelet actions of atorvastatin and pravastatin in inflammatory arthritis.” FASEB J 31, 3636-3648 (2017), the contents of which are incorporated herein by reference. Prior to sample extraction, deuterated internal standards, representing each region in the chromatographic analysis (500 pg each) were added to facilitate quantification. Samples were kept at −20° C. for a minimum of 45 min to allow protein precipitation. Supernatants were subjected to solid phase extraction, methyl formate fraction collected, brought to dryness and suspended in phase (methanol/water, 1:1, vol/vol) for injection on a Shimadzu LC-20AD HPLC and a Shimadzu SIL-20AC autoinjector, paired with a QTrap 5500 or QTrap 6500 plus (Sciex). An Agilent Poroshell 120 EC-C18 column (100 mm×4.6 mm×2.7 μm) was kept at 50° C. and mediators eluted using a mobile phase consisting of methanol/water/acetic acid of 20:80:0.01 (vol/vol/vol) that was ramped to 50:50:0.01 (vol/vol/vol) over 0.5 min and then to 80:20:0.01 (vol/vol/vol) from 2 min to 11 min, maintained till 14.5 min and then rapidly ramped to 98:2:0.01 (vol/vol/vol) for the next 0.1 min. This was subsequently maintained at 98:2:0.01 (vol/vol/vol) for 5.4 min, and the flow rate was maintained at 0.5 ml/min. QTrap 5500 or QTrap 6500 plus were operated using a multiple reaction monitoring method as in Walker, M. E., Souza, P. R., Colas, R. A. & Dalli, J. “13-Series resolvins mediate the leukocyte-platelet actions of atorvastatin and pravastatin in inflammatory arthritis.” FASEB J 31, 3636-3648 (2017), the contents of which are incorporated herein by reference. […]"}, "[2]": {"system": "inflammatory arthritis in wild type (WT) mice", "test": "K/BxN serum inflammatory arthritis in wild type mice treated with MTX", "format": "in vivo", "protocol": "as §1, §2, §3"}, "[3]": {"conditions": "Alox15-/- mice, MTX 25 mg/kg i.p. days 3, 5 and 7"}, "[4]": {"conditions": "MTX 25 mg/kg i.p. days 3, 5 and 7"}},
  "note": "“Also recorded” adds a separate entry of the source.",
  "data": [
    {"smiles": "CN(Cc1cnc2nc(N)nc(N)c2n1)c1ccc(C(=O)N[C@@H](CCC(=O)O)C(=O)O)cc1", "note": "[MTX, Methotrexate]", "values": [
      {"measurement": "disease activity", "setting": "[1]; [3]", "value": "no longer regulated"},
      {"measurement": "weight loss", "setting": "[1]; [3]", "value": "no longer regulated"},
      {"measurement": "peripheral blood and circulating eicosanoid concentrations", "setting": "[1]; Alox15-/- mice, day 8, LC-MS/MS", "value": "lost and no longer regulated"},
      {"measurement": "leukocyte trafficking", "setting": "[1]; Alox15-/- mice, day 8, flow cytometry", "value": "no longer regulated"},
      {"measurement": "protective actions of MTX", "setting": "[1]; mice lacking the ALOX15 enzyme", "value": "lost"},
      {"measurement": "paw edema", "setting": "[2]; [4]", "value": "decrease"},
      {"measurement": "weight loss", "setting": "[2]; [4]", "value": "improvement"},
      {"measurement": "clinical scores", "setting": "[2]; MTX 25 mg/kg i.p. days 3, 5 and 7, 26-point score", "value": "significant reduction"},
      {"measurement": "number of eosinophils, neutrophils, monocytes and macrophages recruited to the joint", "setting": "[2]; day 8, flow cytometry", "value": "decrease"},
      {"measurement": "inflammatory eicosanoid concentrations", "setting": "[2]; plasma and joints, day 8, LC-MS/MS", "value": "regulates; also recorded: reduction"}
    ]}
  ]
}
